In patent US20250257059A1, “PROTEIN TYROSINE PHOSPHATASE INHIBITORS AND USES THEREOF” (Nerio Therapeutics, Inc., priority 2022, published 2025):

Assays:
[1] = biological target: full-length human PTPN2 (TC45) (1-387) (Homo sapiens (Human), UniProt P17706); test: Enzymatic assay used to determine potency of PTPN2 inhibitors (full length PTPN2 DiFMUP assay); type: biochemical; settings: 0.5 nM PTPN2, 100 μM DiFMUP, 30 min at room temperature
Description: Compound activity was determined in an in vitro enzymatic assay using untagged, full-length human PTPN2 (TC45) (1-387) protein. PTPN2 was produced in E. coli as a GST-TEV fusion and the GST was removed by TEV digestion, followed by additional purification to yield full-length PTPN2 (SEQ ID 1). PTPN2 enzyme was diluted in assay buffer (50 mM HEPES pH7.5, 0.2 mM EDTA, 1 mM DTT, 0.02% Brij-35, 0.02% BSA) to a final concentration of 0.5 nM and added to black 384-well non-binding plates (Greiner, 781900). Compounds were subsequently added using a Tecan D300e dispenser. Following a 10 min incubation at room temperature, DiFMUP substrate (ThermoFisher, D22065) was added to a final concentration of 100 μM. Plates were transferred to a SpectraMax plate reader (Molecular Devices) and fluorescence intensity was measured (ex 358, em 455) after a 30 min incubation at room temperature. […] A four-parameter curve fit was used to determine IC50 values from % inhibition data.

[2] = system: murine B16F10 melanoma cell line; test: B16F10 IFNγ-induced cellular growth inhibition assay (xCELLigence RTCA); type: cell-based; settings: Mus musculus, B16-F10, 48 h, B16F10 cells, 1 ng/mL mouse IFNγ, AUC of growth curve, read-out: B16 IFNγ Mediated Growth Inhibition Assay: AVG IC50
Description: Compound activity was determined using an interferon gamma (IFNγ)-induced cellular growth inhibition assay with the murine B16F10 melanoma cell line on an Agilent xCELLigence Real-Time Cell Analysis platform (RTCA). RTCA E-Plate View 96 plates (Agilent, 300601010) were pre-equilibrated with 50 μL of assay media (DMEM+10% FBS, Gibco 10566-024, Gibco 10082-147) at 37° C. in a humidified incubator before taking an initial measurement of impedance (sweep). B16F10 cells cultured in assay media were dissociated with TrypLE Express (Gibco 12605-010) for five minutes at 37° C., diluted in 3 volumes of assay buffer, centrifuged for 5 minutes at 500×g at room temperature before diluting cells to 7,700 cells/mL in assay media, plating 130 μL/well (1,000 cells/well) in the inner 60 wells of the assay plate, and adding 150 μL of assay media to the outer wells of the plate. Cells were incubated at room temperature for 20 min to allow cells to settle before placing them in the xCELLigence reader and incubating overnight at 37° C., sweeping wells every 15 minutes. After 24 hours, well readings were paused, plates were removed from the incubator and compounds were added using a Tecan D300e dispenser. All wells were normalized to a final concentration of 0.5% DMSO. Following a 30 min incubation at 37° C., recombinant mouse IFNγ (R&D Systems™ 485MI100) was diluted to 10 ng/mL in assay media and 20 μL was added to assay wells (1 ng/mL final concentration). Assay plates were placed in the xCELLigence reader and swept every 15 minutes.

Chain of full-length human PTPN2 (TC45) (1-387) (P17706 other isoform, or with tags, fused parts or gaps): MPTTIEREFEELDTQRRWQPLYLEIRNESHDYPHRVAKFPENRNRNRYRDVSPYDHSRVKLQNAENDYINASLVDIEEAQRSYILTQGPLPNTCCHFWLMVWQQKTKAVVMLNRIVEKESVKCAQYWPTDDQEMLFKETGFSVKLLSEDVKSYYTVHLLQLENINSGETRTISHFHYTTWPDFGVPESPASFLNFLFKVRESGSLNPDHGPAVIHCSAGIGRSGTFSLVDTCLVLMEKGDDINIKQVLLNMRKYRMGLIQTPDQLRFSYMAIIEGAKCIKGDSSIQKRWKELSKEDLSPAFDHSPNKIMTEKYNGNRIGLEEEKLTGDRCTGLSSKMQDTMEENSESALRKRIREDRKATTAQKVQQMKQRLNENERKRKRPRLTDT

Compound	IC50 [1] [µM]	IC50 [2] [µM]
CCCCCN1CCC(Cc2cc(O)c(N3CC(=O)NS3(=O)=O)c(F)c2)C1 (stereo not drawn) [Example 24]	0.015	5.9
O=C1CN(c2c(O)cc(CC3CCNC3)cc2F)S(=O)(=O)N1 (stereo not drawn) [Example 27]	0.007	9.73
CCCC1NCCC1Cc1cc(O)c(N2CC(=O)NS2(=O)=O)c(F)c1 (stereo not drawn) [Example 28]	0.023	> 57
CCCC1CNCC1Cc1cc(O)c(N2CC(=O)NS2(=O)=O)c(F)c1 (stereo not drawn) [Example 29]	0.013	> 62
CCC1CNCC1Cc1cc(O)c(N2CC(=O)NS2(=O)=O)c(F)c1 (stereo not drawn) [Example 30]	0.013	> 13
CN1CCCC(Cc2cc(O)c(N3CC(=O)NS3(=O)=O)c(F)c2)C1 (stereo not drawn) [Example 31, 5-(2-fluoro-6-hydroxy-4-((1-methylpiperidin-3-yl)methyl)phenyl)-1,2,5-thiadiazolidin-3-one 1,1-dioxide]	0.047	29.7
O=C1CN(c2c(O)cc(CC3CCCN(CC4CCC4)C3)cc2F)S(=O)(=O)N1 (stereo not drawn) [Example 32]	0.035	14.8
CCCCCN1CCCC(Cc2cc(O)c(N3CC(=O)NS3(=O)=O)c(F)c2)C1 (stereo not drawn) [Example 33]	0.035	28.8
O=C1CN(c2c(O)cc(CC3CCCN(CC4CCCC4)C3)cc2F)S(=O)(=O)N1 (stereo not drawn) [Example 34]	0.043	9.96
CC(C)(C)CCN1CCCC(Cc2cc(O)c(N3CC(=O)NS3(=O)=O)c(F)c2)C1 (stereo not drawn) [Example 35]	0.031	13
CCCCCCN1CCCC(Cc2cc(O)c(N3CC(=O)NS3(=O)=O)c(F)c2)C1 (stereo not drawn) [Example 36]	0.022	81
O=C1CN(c2c(O)cc(CC3CCCN(CC4CC4)C3)cc2F)S(=O)(=O)N1 (stereo not drawn) [Example 37]	0.066	46.4
CCCCN1CCCC(Cc2cc(O)c(N3CC(=O)NS3(=O)=O)c(F)c2)C1 (stereo not drawn) [Example 38]	0.154	> 100
O=C1CN(c2c(O)cc(CC3CCCN(Cc4cc[nH]c4)C3)cc2F)S(=O)(=O)N1 (stereo not drawn) [Example 39]	0.063	> 100
O=C1CN(c2c(O)cc(CC3CCCN(CCC4CCOCC4)C3)cc2F)S(=O)(=O)N1 (stereo not drawn) [Example 40]	0.046	38.6
CC(C)CCN1CCCC(Cc2cc(O)c(N3CC(=O)NS3(=O)=O)c(F)c2)C1 (stereo not drawn) [Example 41]	0.047	> 100
O=C1CN(c2c(O)cc(CC3CCCN(Cc4cn[nH]c4)C3)cc2F)S(=O)(=O)N1 (stereo not drawn) [Example 42]	0.012	> 100
O=C1CN(c2c(O)cc(CC3CCCN(CC4CCCO4)C3)cc2F)S(=O)(=O)N1 (stereo not drawn) [Example 43]	0.063	95.9
O=C1CN(c2c(O)cc(CC3CCCN(CC4CCNCC4)C3)cc2F)S(=O)(=O)N1 (stereo not drawn) [Example 44]	0.004	38
O=C1CN(c2c(O)cc(CC3CCCN(Cc4ccoc4)C3)cc2F)S(=O)(=O)N1 (stereo not drawn) [Example 45]	0.03	55.4
O=C1CN(c2c(O)cc(CC3CCCN(Cc4ccco4)C3)cc2F)S(=O)(=O)N1 (stereo not drawn) [Example 46]	0.075	> 100
O=C1CN(c2c(O)cc(CC3CCCN(Cc4cnco4)C3)cc2F)S(=O)(=O)N1 (stereo not drawn) [Example 48]	0.223	> 33
CCCN1CCCC(Cc2cc(O)c(N3CC(=O)NS3(=O)=O)c(F)c2)C1 (stereo not drawn) [Example 49]	0.096	> 38

Compound	IC50 [1] [µM]	IC50 [2] [µM]
CC(C)CN1CCCC(Cc2cc(O)c(N3CC(=O)NS3(=O)=O)c(F)c2)C1 (stereo not drawn) [Example 50]	0.091	> 100
CCN1CCCC(Cc2cc(O)c(N3CC(=O)NS3(=O)=O)c(F)c2)C1 (stereo not drawn) [Example 51]	0.063	27.6
O=C1CN(c2c(O)cc(CC3CCCN(Cc4ncc[nH]4)C3)cc2F)S(=O)(=O)N1 (stereo not drawn) [Example 52]	0.044	> 73
O=C1CN(c2c(O)cc(CC3CCCN(Cc4ccn[nH]4)C3)cc2F)S(=O)(=O)N1 (stereo not drawn) [Example 53]	0.035	> 100
O=C1CN(c2c(O)cc(CC3CCCNC3)cc2F)S(=O)(=O)N1 (stereo not drawn) [Example 54]	0.075	25.8
CN1CCCCC(Cc2cc(O)c(N3CC(=O)NS3(=O)=O)c(F)c2)C1 (stereo not drawn) [Example 56, 5-(2-fluoro-6-hydroxy-4-((1-methylazepan-3-yl)methyl)phenyl)-1,2,5-thiadiazolidin-3-one 1,1-dioxide]	0.028	> 45
CN1CCCC(Cc2cc(O)c(N3CC(=O)NS3(=O)=O)c(F)c2)CC1 (stereo not drawn) [Example 60]	0.024	> 73
CN1CCC(CCc2cc(O)c(N3CC(=O)NS3(=O)=O)c(F)c2)C1 (stereo not drawn) [Example 61, 5-(2-fluoro-6-hydroxy-4-(2-(1-methylpyrrolidin-3-yl)ethyl)phenyl)-1,2,5-thiadiazolidin-3-one 1,1-dioxide]	0.019	> 41
O=C1CN(c2c(O)cc(CCC3CCNC3)cc2F)S(=O)(=O)N1 (stereo not drawn) [Example 62]	0.016	> 100
CC(C)CN1CCC(CCc2cc(O)c(N3CC(=O)NS3(=O)=O)c(F)c2)C1 (stereo not drawn) [Example 63]	0.075	> 100
CC(C)CCN1CCC(CCc2cc(O)c(N3CC(=O)NS3(=O)=O)c(F)c2)C1 (stereo not drawn) [Example 64]	0.089	> 100
O=C1CN(c2c(O)cc(CCC3CCCN3)cc2F)S(=O)(=O)N1 (stereo not drawn) [Example 66]	0.016	4.27
CC(C)CCN1CCCC1CCc1cc(O)c(N2CC(=O)NS2(=O)=O)c(F)c1 (stereo not drawn) [Example 67]	0.036	> 100
CC(C)CN1CCCC1CCc1cc(O)c(N2CC(=O)NS2(=O)=O)c(F)c1 (stereo not drawn) [Example 68]	0.046	> 100
O=C1CN(c2c(O)cc(CC3CNC3)cc2F)S(=O)(=O)N1 [Example 69, 5-(4-(azetidin-3-ylmethyl)-2-fluoro-6-hydroxyphenyl)-1,2,5-thiadiazolidin-3-one 1,1-dioxide]	0.015	13.6
CCCC1CCCN1Cc1cc(O)c(N2CC(=O)NS2(=O)=O)c(F)c1 (stereo not drawn) [Example 70, 5-(2-fluoro-6-hydroxy-4-((2-propylpyrrolidin-1-yl)methyl)phenyl)-1,2,5-thiadiazolidin-3-one 1,1-dioxide]	0.204	> 45
CCCC1CCN(Cc2cc(O)c(N3CC(=O)NS3(=O)=O)c(F)c2)C1 (stereo not drawn) [Example 71]	0.065	19.3
CC(C)CC1CCN(Cc2cc(O)c(N3CC(=O)NS3(=O)=O)c(F)c2)C1 (stereo not drawn) [Example 72]	0.066	8.44
O=C1CN(c2c(O)cc(CN3CCCC3)cc2F)S(=O)(=O)N1 [Example 73]	0.092	8.62
CN1CCCCC1Cc1ccc(O)c(N2CC(=O)NS2(=O)=O)c1F (stereo not drawn) [Example 74, 5-(2-fluoro-6-hydroxy-3-((1-methylpiperidin-2-yl)methyl)phenyl)-1,2,5-thiadiazolidin-3-one 1,1-dioxide]	0.161	9.29
CC(C)CCN1CCCCC1Cc1ccc(O)c(N2CC(=O)NS2(=O)=O)c1F (stereo not drawn) [Example 76]	0.006	8.92
O=C1CN(c2c(O)ccc(CC3CCCCN3CCC(F)(F)F)c2F)S(=O)(=O)N1 (stereo not drawn) [Example 77]	0.004	> 100
